In ChEMBL document CHEMBL6109119, “Chemoproteomic Profiling of C. albicans for Characterization of Antifungal Kinase Inhibitors” (J Med Chem, 2025):
Active and inactive are the calls of the source. No cut-off for these calls is given here.

How the values were obtained:
[1] = biological target: T1, Casein kinase I isoform epsilon (Homo sapiens, UniProt P49674); type: cell-based, HEK293
Target sequence in this assay (P49674 whole entry, canonical isoform): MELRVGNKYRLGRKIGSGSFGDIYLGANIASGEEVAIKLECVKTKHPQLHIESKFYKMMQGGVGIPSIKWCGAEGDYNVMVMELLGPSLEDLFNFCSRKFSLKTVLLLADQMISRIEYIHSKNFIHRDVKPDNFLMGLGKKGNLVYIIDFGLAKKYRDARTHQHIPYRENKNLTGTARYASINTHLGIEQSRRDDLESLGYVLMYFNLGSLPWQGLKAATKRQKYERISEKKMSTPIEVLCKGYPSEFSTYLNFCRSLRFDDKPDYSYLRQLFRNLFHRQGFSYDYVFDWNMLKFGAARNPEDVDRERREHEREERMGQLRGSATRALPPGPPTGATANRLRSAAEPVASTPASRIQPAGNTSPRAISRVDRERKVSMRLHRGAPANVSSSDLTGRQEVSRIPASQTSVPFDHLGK

[2] = biological target: T1, Casein kinase I isoform epsilon; experiment: Inhibition of human CK1epsilon transfected in HEK293 cells at 10 uM using NanoBRET NanoGlo substrate incubated for 2 hrs in presence of K8 tracer by NanoBRET assay relative to control; type: cell-based
Target sequence in this assay (P49674 whole entry, looked up, canonical isoform): as the sequence (P49674 whole entry, canonical isoform) above

[3] = biological target: T1, Casein kinase I isoform epsilon; experiment: Binding affinity to human CK1epsilon transfected in HEK293 cells at 0.1 to 10 uM by MIB/MS competition assay; type: cell-based; details: dose 0.1-10 µM
Target sequence in this assay (P49674 whole entry, looked up, canonical isoform): as the sequence (P49674 whole entry, canonical isoform) above

[4] = biological target: T2, Casein kinase I isoform delta (Homo sapiens, UniProt P48730); experiment: Binding affinity to human CK1 delta transfected in HEK293 cells at 0.1 to 10 uM by MIB/MS competition assay; type: cell-based; details: dose 0.1-10 µM
Target sequence in this assay (P48730 whole entry, looked up, canonical isoform): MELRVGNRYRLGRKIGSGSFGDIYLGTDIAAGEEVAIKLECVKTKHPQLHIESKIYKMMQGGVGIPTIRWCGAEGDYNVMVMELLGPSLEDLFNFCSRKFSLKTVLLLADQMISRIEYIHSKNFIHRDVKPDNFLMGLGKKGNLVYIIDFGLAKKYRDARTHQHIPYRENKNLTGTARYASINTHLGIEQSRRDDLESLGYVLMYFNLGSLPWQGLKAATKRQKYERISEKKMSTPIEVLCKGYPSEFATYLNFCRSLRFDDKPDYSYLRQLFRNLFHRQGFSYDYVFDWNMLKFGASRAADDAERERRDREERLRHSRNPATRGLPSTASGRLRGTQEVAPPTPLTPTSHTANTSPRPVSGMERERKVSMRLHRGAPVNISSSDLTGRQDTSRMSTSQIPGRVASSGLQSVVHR

[5] = biological target: Serine/threonine-protein kinase N3 (Homo sapiens) (UniProt Q6P5Z2); experiment: Binding affinity to human PKN3 transfected in HEK293 cells at 0.1 to 10 uM by MIB/MS competition assay; type: cell-based; details: dose 0.1-10 µM
Chain of Serine/threonine-protein kinase N3 (Homo sapiens) (Q6P5Z2 whole entry, looked up): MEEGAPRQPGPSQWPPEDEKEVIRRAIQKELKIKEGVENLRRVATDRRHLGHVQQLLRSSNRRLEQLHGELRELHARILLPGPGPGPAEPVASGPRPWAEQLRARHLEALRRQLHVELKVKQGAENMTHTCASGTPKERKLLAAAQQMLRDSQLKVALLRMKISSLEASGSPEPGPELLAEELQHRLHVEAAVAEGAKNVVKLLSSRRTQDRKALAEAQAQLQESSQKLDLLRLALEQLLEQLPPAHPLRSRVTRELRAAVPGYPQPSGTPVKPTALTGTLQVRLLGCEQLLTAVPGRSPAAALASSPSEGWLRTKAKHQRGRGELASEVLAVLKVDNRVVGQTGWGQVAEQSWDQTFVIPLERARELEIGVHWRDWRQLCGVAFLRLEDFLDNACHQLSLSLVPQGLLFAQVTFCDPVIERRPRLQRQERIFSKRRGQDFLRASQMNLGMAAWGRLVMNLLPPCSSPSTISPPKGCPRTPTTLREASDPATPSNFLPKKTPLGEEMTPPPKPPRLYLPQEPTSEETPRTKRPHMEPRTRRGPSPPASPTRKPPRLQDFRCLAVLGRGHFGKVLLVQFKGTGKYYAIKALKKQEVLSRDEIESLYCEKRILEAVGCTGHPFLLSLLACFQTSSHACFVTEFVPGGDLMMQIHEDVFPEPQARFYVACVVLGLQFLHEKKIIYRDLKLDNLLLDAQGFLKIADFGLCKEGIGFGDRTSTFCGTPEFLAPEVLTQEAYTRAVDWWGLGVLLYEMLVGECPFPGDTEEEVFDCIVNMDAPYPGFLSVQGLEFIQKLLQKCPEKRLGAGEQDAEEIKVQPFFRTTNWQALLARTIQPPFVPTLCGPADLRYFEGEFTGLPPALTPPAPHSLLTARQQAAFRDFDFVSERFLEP

[6] = biological target: Receptor-interacting serine/threonine-protein kinase 2 (Homo sapiens) (UniProt O43353); experiment: Binding affinity to human RIPK2 transfected in HEK293 cells at 0.1 to 10 uM by MIB/MS competition assay; type: cell-based; details: dose 0.1-10 µM
Chain of Receptor-interacting serine/threonine-protein kinase 2 (Homo sapiens) (O43353 whole entry): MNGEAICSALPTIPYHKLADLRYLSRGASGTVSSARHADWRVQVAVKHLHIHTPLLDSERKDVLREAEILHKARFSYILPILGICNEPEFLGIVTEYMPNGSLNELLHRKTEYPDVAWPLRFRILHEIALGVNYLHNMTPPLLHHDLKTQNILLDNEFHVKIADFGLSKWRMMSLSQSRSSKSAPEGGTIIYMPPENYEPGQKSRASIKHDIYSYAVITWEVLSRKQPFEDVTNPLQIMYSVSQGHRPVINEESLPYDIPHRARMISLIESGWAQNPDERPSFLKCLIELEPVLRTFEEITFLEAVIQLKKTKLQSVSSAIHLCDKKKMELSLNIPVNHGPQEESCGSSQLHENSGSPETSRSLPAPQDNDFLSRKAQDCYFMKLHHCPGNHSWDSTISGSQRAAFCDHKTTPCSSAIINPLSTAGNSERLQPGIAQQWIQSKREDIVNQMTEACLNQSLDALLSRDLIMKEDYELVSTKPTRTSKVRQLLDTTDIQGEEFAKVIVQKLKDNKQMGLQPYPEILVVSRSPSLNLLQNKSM

[7] = biological target: Mitogen-activated protein kinase 11 (Homo sapiens) (UniProt Q15759); experiment: Binding affinity to human P38beta transfected in HEK293 cells at 0.1 to 10 uM by MIB/MS competition assay; type: cell-based; details: dose 0.1-10 µM
Chain of Mitogen-activated protein kinase 11 (Homo sapiens) (Q15759 whole entry): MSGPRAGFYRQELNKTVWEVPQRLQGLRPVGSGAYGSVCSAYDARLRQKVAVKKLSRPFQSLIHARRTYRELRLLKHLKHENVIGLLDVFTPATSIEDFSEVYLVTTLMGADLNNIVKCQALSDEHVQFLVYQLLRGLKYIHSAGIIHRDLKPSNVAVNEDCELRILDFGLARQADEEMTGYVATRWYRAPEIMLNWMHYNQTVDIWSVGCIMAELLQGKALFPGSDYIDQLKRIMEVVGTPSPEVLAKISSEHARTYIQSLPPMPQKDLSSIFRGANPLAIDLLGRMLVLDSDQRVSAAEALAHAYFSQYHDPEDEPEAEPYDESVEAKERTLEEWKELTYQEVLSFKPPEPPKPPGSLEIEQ

[8] = biological target: T3, Serine/threonine protein kinase YCK2 (Candida albicans (strain SC5314 / ATCC MYA-2876) (Yeast)) (UniProt A0A1D8PKB4); details: HEK293, dose 10.0 µM
T3 sequence (whole entry): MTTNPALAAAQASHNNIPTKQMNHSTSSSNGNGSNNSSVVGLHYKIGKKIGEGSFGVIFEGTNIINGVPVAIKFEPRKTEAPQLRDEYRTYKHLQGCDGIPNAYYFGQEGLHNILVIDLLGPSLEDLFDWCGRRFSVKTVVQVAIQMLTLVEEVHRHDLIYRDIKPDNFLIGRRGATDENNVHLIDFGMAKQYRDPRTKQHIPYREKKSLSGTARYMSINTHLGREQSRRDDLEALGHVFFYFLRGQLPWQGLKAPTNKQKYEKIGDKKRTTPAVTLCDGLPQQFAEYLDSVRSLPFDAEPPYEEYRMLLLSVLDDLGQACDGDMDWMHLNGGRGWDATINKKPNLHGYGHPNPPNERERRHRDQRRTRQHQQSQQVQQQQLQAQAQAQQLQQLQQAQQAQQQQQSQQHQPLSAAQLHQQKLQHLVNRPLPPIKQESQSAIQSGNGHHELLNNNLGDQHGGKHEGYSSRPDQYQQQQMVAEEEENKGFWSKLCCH

[9] = biological target: T3, Serine/threonine protein kinase YCK2 (Candida albicans (strain SC5314 / ATCC MYA-2876) (Yeast)); details: HEK293, dose 10.0 µM; remark: listed apart in the source
[10] = test system: HEK293; details: Candida albicans, dose 10.0 µM
[11] = test system: HEK293; details: Candida albicans, dose 10.0 µM; remark: listed apart in the source
[12] = test system: HEK293; details: Candida albicans, dose 10.0 µM; remark: listed apart in the source
[13] = biological target: Casein kinase I isoform alpha (Homo sapiens, UniProt P48729)
Chain of Casein kinase I isoform alpha (P48729 whole entry, canonical isoform): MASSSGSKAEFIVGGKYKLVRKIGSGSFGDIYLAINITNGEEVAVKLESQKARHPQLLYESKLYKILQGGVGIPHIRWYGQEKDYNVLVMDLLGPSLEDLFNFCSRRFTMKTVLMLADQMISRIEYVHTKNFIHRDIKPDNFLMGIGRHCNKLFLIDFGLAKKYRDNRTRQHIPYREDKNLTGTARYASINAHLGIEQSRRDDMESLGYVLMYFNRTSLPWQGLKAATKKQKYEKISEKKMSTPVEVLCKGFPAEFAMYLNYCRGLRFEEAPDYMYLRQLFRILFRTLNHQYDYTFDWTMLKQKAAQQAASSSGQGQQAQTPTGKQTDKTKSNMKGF

[14] = biological target: T4, Mitogen-activated protein kinase 14 (Homo sapiens, UniProt Q16539)
T4 sequence (Q16539 whole entry): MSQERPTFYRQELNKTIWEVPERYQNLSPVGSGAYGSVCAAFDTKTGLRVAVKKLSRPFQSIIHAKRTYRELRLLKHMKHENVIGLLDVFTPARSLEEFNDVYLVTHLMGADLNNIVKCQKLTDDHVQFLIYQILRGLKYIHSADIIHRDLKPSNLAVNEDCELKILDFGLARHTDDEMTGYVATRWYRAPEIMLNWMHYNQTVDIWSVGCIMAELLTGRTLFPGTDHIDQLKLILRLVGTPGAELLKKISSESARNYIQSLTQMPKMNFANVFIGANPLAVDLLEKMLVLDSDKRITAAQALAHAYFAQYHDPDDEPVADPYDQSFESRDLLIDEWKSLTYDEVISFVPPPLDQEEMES

[15] = biological target: T5, Serine/threonine protein kinase YCK2 (Candida albicans (strain SC5314 / ATCC MYA-2876) (Yeast), UniProt A0A1D8PKB4)
T5 sequence (A0A1D8PKB4 whole entry): T3 sequence (whole entry)

[16] = biological target: T5, Serine/threonine protein kinase YCK2; type: cell-based, HEK293
[17] = biological target: T2, Casein kinase I isoform delta; type: cell-based, HEK293
Target sequence in this assay (P48730 whole entry, canonical isoform): as the sequence (P48730 whole entry, looked up, canonical isoform) above

[18] = biological target: T4, Mitogen-activated protein kinase 14; experiment: Inhibition of human P38alpha transfected in HEK293 cells using NanoBRET NanoGlo substrate incubated for 2 hrs in presence of K4 tracer by NanoBRET assay; type: cell-based
[19] = biological target: Casein kinase I isoform gamma-2 (Homo sapiens) (UniProt P78368); experiment: Binding affinity to human CK1gamma 2 transfected in HEK293 cells at 0.1 to 10 uM by MIB/MS competition assay; type: cell-based; details: dose 0.1-10 µM
Chain of Casein kinase I isoform gamma-2 (Homo sapiens) (P78368 whole entry, looked up, canonical isoform): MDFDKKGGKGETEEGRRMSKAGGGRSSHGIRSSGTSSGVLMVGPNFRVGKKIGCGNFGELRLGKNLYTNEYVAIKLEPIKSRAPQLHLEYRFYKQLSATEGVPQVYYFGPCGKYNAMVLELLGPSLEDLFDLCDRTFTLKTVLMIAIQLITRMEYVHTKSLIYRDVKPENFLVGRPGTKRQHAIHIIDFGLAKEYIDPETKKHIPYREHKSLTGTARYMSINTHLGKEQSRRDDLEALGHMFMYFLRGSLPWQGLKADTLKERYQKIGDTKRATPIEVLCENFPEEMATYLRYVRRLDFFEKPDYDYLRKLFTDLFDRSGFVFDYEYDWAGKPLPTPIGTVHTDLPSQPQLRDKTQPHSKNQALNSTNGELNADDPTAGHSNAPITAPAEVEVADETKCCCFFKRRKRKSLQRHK

[20] = biological target: T6, Activin receptor type-1B (Homo sapiens) (UniProt P36896); experiment: Binding affinity to human ALK4 transfected in HEK293 cells at 0.1 to 10 uM by MIB/MS competition assay; type: cell-based; details: dose 0.1-10 µM
T6 sequence (whole entry): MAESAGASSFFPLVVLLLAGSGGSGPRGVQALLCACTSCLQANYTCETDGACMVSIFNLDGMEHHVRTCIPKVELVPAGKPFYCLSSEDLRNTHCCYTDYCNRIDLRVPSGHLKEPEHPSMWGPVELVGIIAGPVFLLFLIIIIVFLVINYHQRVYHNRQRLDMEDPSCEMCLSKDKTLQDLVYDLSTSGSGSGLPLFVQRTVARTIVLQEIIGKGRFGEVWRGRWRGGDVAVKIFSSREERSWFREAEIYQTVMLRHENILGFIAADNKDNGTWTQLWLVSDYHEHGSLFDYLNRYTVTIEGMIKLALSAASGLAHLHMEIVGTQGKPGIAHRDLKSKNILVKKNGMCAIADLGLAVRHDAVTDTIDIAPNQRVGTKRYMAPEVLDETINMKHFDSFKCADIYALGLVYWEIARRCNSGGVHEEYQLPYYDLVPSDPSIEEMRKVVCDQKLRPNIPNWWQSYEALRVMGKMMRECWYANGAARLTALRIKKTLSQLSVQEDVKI

[21] = test system: Candida albicans; experiment: Antifungal activity against wild type Candida albicans CaSS1 at 100 uM; type: functional, organism-based
[22] = test system: Candida albicans; experiment: Antifungal activity against Candida albicans harboring tetO-YCK2/yck2 mutant assessed as inhibition of fungal growth at 100 uM in absence of doxycyclin; type: functional, organism-based
[23] = test system: Candida albicans; experiment: Antifungal activity against Candida albicans harboring tetO-YCK2/yck2 mutant assessed as inhibition of fungal growth at 100 uM in presence of doxycyclin; type: functional, organism-based
[24] = test system: Candida albicans; experiment: Antifungal activity against Candida albicans harboring cdr1mutant/mutant assessed as inhibition of fungal growth; type: functional, organism-based
[25] = test system: Candida albicans; experiment: Antifungal activity against Candida albicans harboring cdr2mutant/mutant assessed as inhibition of fungal growth; type: functional, organism-based
[26] = test system: Candida albicans; experiment: Antifungal activity against Candida albicans harboring mdr1mutant/mutant assessed as inhibition of fungal growth; type: functional, organism-based
[27] = test system: Candida albicans; experiment: Antifungal activity against Candida albicans harboring flu1mutant/mutant assessed as inhibition of fungal growth; type: functional, organism-based
[28] = test system: Candida albicans; experiment: Antifungal activity against Candida albicans harboring tetO-ERG6/erg6mutant assessed as inhibition of fungal growth in presence of doxycyclin; type: functional, organism-based
[29] = test system: Candida albicans; experiment: Binding affinity to Candida albicans Hrr25 assessed as target engagement at 0.1 to 10 uM by MIB/MS competition assay; details: dose 0.1-10 µM
[30] = test system: Candida albicans; experiment: Binding affinity to Candida albicans Hog1 assessed as target engagement at 0.1 to 10 uM by MIB/MS competition analysis; details: dose 0.1-10 µM
[31] = biological target: T3, Serine/threonine protein kinase YCK2 (Candida albicans (strain SC5314 / ATCC MYA-2876) (Yeast)); experiment: Binding affinity to Candida albicans Yck2 assessed as target engagement by MIB/MS competition assay

Structure (SMILES) | IC50 [1] | inhibition [2] | IC50 [14] | IC50 [15] | IC50 [16] | IC50 [17] | IC50 [18] | further results
N#Cc1ccn2c(-c3ccncc3)c(-c3ccc(F)cc3)nc2c1 | > 10000 nM | 25% | – | – | – | – | – | Activity [3]: Active; Activity [4]: Active; Activity [5]: Active; Activity [6]: Active; Activity [7]: Active; log2FC [8]: -3.5; log2FC [9]: -2.2; log2FC [10]: -1.4; log2FC [11]: -2.2; log2FC [12]: -1
CNC(=O)c1nn(C)c2c1C(C)(C)Cc1cnc(Nc3ccc(N4CCN(C)CC4)cc3)nc1-2 [MILCICLIB] | – | – | > 20000 nM | 770 nM | 1100 nM | 200 nM | – | IC50 [13]: 250 nM
CC(C)(C)c1cnc(CSc2cnc(NC(=O)C3CCNCC3)s2)o1 [BMS-387032] | – | 25% | – | > 8000 nM | > 10000 nM | – | – | –
Cc1ccc2c(-c3ccncc3)c(-c3ccc(F)cc3)nn2c1 | 780 nM | – | – | – | – | 230 nM | 44 nM | –
C[C@@H](N)c1ccc(C(=O)Nc2ccnc3[nH]ccc23)cc1 [Y-39983] | > 10000 nM | 25% | > 20000 nM | > 8000 nM | > 10000 nM | > 10000 nM | – | –
Cc1nc(N)sc1-c1ccnc(Nc2ccc(N3CCOCC3)cc2)n1 [CYC-116] | ~10000 nM | > 50% | > 20000 nM | – | > 10000 nM | – | – | –
N#Cc1ccc2c(-c3ccncc3)c(-c3ccc(F)cc3)nn2c1 | > 10000 nM | 25% | – | – | – | – | 80 nM | Activity [3]: Active; Activity [4]: Active; Activity [5]: Active; Activity [6]: Active; Activity [19]: Active; Activity [20]: Active
Nc1nc(Nc2ccc(S(N)(=O)=O)cc2)n(C(=S)Nc2c(F)cccc2F)n1 | > 10000 nM | 25% | > 20000 nM | 470 nM | > 10000 nM | – | – | IC50 [13]: > 20000 nM
CC(C)[C@H](CO)Nc1nc(Nc2cc(N)cc(Cl)c2)c2ncn(C(C)C)c2n1 [AMINOPURVALANOL] | > 10000 nM | 25% | > 20000 nM | > 8000 nM | > 10000 nM | > 10000 nM | – | IC50 [13]: > 20000 nM
c1ccc(-c2n[nH]cc2-c2ccnc3ccccc23)nc1 | – | < 25% | 2600 nM | – | – | 2800 nM | 760 nM | Activity [21]: Active; Weakly Active; Activity [22]: Active; Activity [23]: Active; Activity [24]: inactive; Activity [25]: inactive; Activity [26]: inactive; Activity [27]: inactive; Activity [28]: Active; Activity [29]: Active; Activity [30]: inactive
CC(=O)c1cnc2ccc(-c3cc(Cl)c(O)c(Cl)c3)nc2c1N[C@H]1CC[C@H](CN(C)C)CC1 | – | – | 40 nM | – | 660 nM | – | > 10000 nM | –
CC(C)(C)n1nc(Cc2cccc3ccccc23)c2c(N)ncnc21 | 14 nM | – | 750 nM | > 8000 nM | – | > 10000 nM | 1600 nM | –
CN1CCC(F)(Cn2cnc(-c3ccc(F)cn3)c2-c2ccnc3[nH]ccc23)CC1 | 82 nM | – | – | 640 nM | > 10000 nM | – | – | IC50 [13]: 14 nM
CC(C)n1nc(-c2cc3cc(O)ccc3[nH]2)c2c(N)ncnc21 | – | > 50% | – | – | – | – | – | –
Cc1n[nH]c2ccc(-c3cc(OC[C@@H](N)Cc4ccccc4)cnc3-c3ccoc3)cc12 | 200 nM | – | – | – | 100 nM | 100 nM | – | Activity [31]: Dose-dependent-effect
Cc1occc1-c1nc(N)c(OC[C@@H](N)Cc2c[nH]c3ccccc23)cc1-c1cc2c(C)n[nH]c2cn1 | 620 nM | – | – | 180 nM | 3700 nM | 1400 nM | – | –
